Test results taken from PubChem BioAssay AID330 (DTP/NCI, 2004).
Several values for one entry are separate records, joined by “and”; a condition that tells them apart may be missing. Equal entries are not always repeated. Toxic doses and inconclusive results are not listed.

System: P388 leukemia ip, CD2F1 mice, survival T/C
Test: NCI In Vivo Anticancer Drug Screen. Data for tumor model P388 Leukemia (intraperitoneal) in CD2F1 (CDF1) mice
Details: endpoint: median survival time, higher = longer survival
Procedure, shortened: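 Mice carrying the transplanted tumor received test compound or vehicle. Survival was recorded in each group, and the value is the treated-group measurement divided by that of the vehicle-treated control group.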

[1] = dose: 6.25 mg/kg/injection, schedule: Q01DX005 (ip), vehicle: Klucel (hydroxypropylcellulose) (HPC)
[2] = dose: 12.5 mg/kg/injection, schedule: Q01DX005 (ip), vehicle: Klucel (hydroxypropylcellulose) (HPC)
[3] = dose: 25.0 mg/kg/injection, schedule: Q01DX005 (ip), vehicle: Klucel (hydroxypropylcellulose) (HPC)
[4] = dose: 50.0 mg/kg/injection, schedule: Q01DX005 (ip), vehicle: Klucel (hydroxypropylcellulose) (HPC)
[5] = dose: 100.0 mg/kg/injection, schedule: Q01DX005 (ip), vehicle: Klucel (hydroxypropylcellulose) (HPC)
[6] = dose: 200.0 mg/kg/injection, schedule: Q01DX005 (ip), vehicle: Klucel (hydroxypropylcellulose) (HPC)
[7] = dose: 50.0 mg/kg/injection, schedule: Q01DX005 (ip), vehicle: saline with Tween-80
[8] = dose: 100.0 mg/kg/injection, schedule: Q01DX005 (ip), vehicle: saline with Tween-80
[9] = dose: 200.0 mg/kg/injection, schedule: Q01DX005 (ip), vehicle: saline with Tween-80
[10] = dose: 60.0 mg/kg/injection, schedule: Q01DX005 (ip), vehicle: Klucel (hydroxypropylcellulose) (HPC)
[11] = dose: 120.0 mg/kg/injection, schedule: Q01DX005 (ip), vehicle: Klucel (hydroxypropylcellulose) (HPC)
[12] = dose: 240.0 mg/kg/injection, schedule: Q01DX005 (ip), vehicle: Klucel (hydroxypropylcellulose) (HPC)
[13] = dose: 100.0 mg/kg/injection, schedule: Q01DX001 (ip), vehicle: saline
[14] = dose: 200.0 mg/kg/injection, schedule: Q01DX001 (ip), vehicle: saline
[15] = dose: 400.0 mg/kg/injection, schedule: Q01DX001 (ip), vehicle: saline
[16] = dose: 50.0 mg/kg/injection, schedule: Q01DX009 (ip), vehicle: saline with Tween-80
[17] = dose: 100.0 mg/kg/injection, schedule: Q01DX009 (ip), vehicle: saline with Tween-80
[18] = dose: 60.0 mg/kg/injection, schedule: Q01DX005 (ip), vehicle: saline with Tween-80
[19] = dose: 120.0 mg/kg/injection, schedule: Q01DX005 (ip), vehicle: saline with Tween-80
[20] = dose: 30.0 mg/kg/injection, schedule: Q01DX005 (ip), vehicle: Klucel (hydroxypropylcellulose) (HPC)
[21] = dose: 240.0 mg/kg/injection, schedule: Q01DX005 (ip), vehicle: saline with Tween-80

NS(=O)(=O)c1ccc(N=Nc2nc3[nH]c(=O)[nH]c(=O)c3[nH]2)cc1
T/C [1]: 106 % of control
T/C [2]: 102 % of control
T/C [3]: 107 % of control

S=C(Nc1cc(Cl)c(Cl)cc1Cl)SCc1ccccc1
T/C (dose: 50.0 mg/kg/injection, schedule: Q01DX009 (ip), vehicle: suspension in saline): 93 % of control
T/C (dose: 100.0 mg/kg/injection, schedule: Q01DX009 (ip), vehicle: suspension in saline): 93 % of control

CC(C)C(NC(=O)OCC1c2ccccc2-c2ccccc21)C(=O)O (centres undefined)
T/C [4]: 104 % of control
T/C [5]: 99 % of control
T/C [6]: 98 % of control

CC(=O)Nc1nc(Cl)c2ncn(C3CC(OC(=O)c4ccc(C)cc4)C(COC(=O)c4ccc(C)cc4)O3)c2n1 (centres undefined)
T/C [2]: 97 % of control
T/C [3]: 90 % of control
T/C [4]: 97 % of control and 100 % of control
T/C [5]: 95 % of control and 98 % of control
T/C [6]: 97 % of control and 103 % of control

CCOC(=O)C1C(COCc2ccccc2)C2CCC1(OC)C=C2C (centres undefined)
T/C [7]: 99 % of control
T/C [8]: 97 % of control
T/C [9]: 104 % of control

O=c1c(Cc2ccccc2)c([O-])[n+](Cc2ccccc2)c(-c2ccccc2)n1-c1ccccc1
T/C [10]: 98 % of control
T/C [11]: 91 % of control
T/C [12]: 90 % of control

C=CCC1(COS(N)(=O)=O)OC(n2cnc3c(N)ncnc32)C(O)C1O (centres undefined)
T/C (dose: 50.0 mg/kg/injection, schedule: Q01DX001 (ip), vehicle: saline): 101 % of control
T/C [13]: 101 % of control
T/C [14]: 111 % of control
T/C [15]: 99 % of control

O=P1(CNc2ccccc2)CN(c2ccccc2)CN(c2ccccc2)C1
T/C (dose: 12.5 mg/kg/injection, schedule: Q01DX001 (ip), vehicle: saline with Tween-80): 100 % of control
T/C (dose: 25.0 mg/kg/injection, schedule: Q01DX001 (ip), vehicle: saline with Tween-80): 100 % of control
T/C (dose: 50.0 mg/kg/injection, schedule: Q01DX001 (ip), vehicle: saline with Tween-80): 100 % of control

CC(Oc1ccccc1)C(=O)O (centres undefined)
T/C [16]: 98 % of control
T/C [17]: 97 % of control

CCCCCCCCCCCCCCCC[N+](C)(C)CC(=O)O
T/C (dose: 12.5 mg/kg/injection, schedule: Q01DX009 (ip), vehicle: saline with Tween-80): 104 % of control
T/C (dose: 25.0 mg/kg/injection, schedule: Q01DX009 (ip), vehicle: saline with Tween-80): 86 % of control
T/C [16]: 105 % of control

COc1cc(-c2ccc(NC(=O)Nc3nccs3)c(OC)c2)ccc1NC(=O)Nc1nccs1
T/C [16]: 95 % of control
T/C [17]: 98 % of control
T/C (dose: 200.0 mg/kg/injection, schedule: Q01DX009 (ip), vehicle: saline with Tween-80): 96 % of control

O=S(=O)(F)c1nc(Cl)c2[nH]cnc2n1
T/C [2]: 106 % of control
T/C [3]: 114 % of control
T/C [4]: 110 % of control and 114 % of control

NC(=O)c1cccn1Cc1ccccc1SSc1ccccc1Cn1cccc1C(N)=O
T/C [18]: 91 % of control
T/C [19]: 87 % of control

C#CCOC(=O)c1ccccc1
T/C (dose: 12.5 mg/kg/injection, schedule: Q01DX005 (ip), vehicle: saline with Tween-80): 104 % of control
T/C (dose: 25.0 mg/kg/injection, schedule: Q01DX005 (ip), vehicle: saline with Tween-80): 89 % of control
T/C [7]: 104 % of control and 95 % of control

COC(=O)C1=C/CCCN(C(c2ccccc2)c2ccccc2)/C=C\1C(=O)OC
T/C [13]: 99 % of control
T/C [14]: 91 % of control
T/C [15]: 95 % of control

CCCCCCC(=O)Nc1ncc([N+](=O)[O-])s1
T/C (dose: 50.0 mg/kg/injection, schedule: Q01DX009 (ip), vehicle: Klucel (hydroxypropylcellulose) (HPC)): 106 % of control
T/C (dose: 100.0 mg/kg/injection, schedule: Q01DX009 (ip), vehicle: Klucel (hydroxypropylcellulose) (HPC)): 106 % of control
T/C (dose: 200.0 mg/kg/injection, schedule: Q01DX009 (ip), vehicle: Klucel (hydroxypropylcellulose) (HPC)): 100 % of control

CNC(=O)OCc1ccc(NCCN(C)C)c2c(=O)c3cc(OC(=O)NC)ccc3oc12
T/C (dose: 3.13 mg/kg/injection, schedule: Q01DX005 (ip), vehicle: Klucel (hydroxypropylcellulose) (HPC)): 118 % of control
T/C [1]: 123 % of control

CC1(C)CC2C3=CCC4C5(C)CCC(O)C(C)(C)C5CCC4(C)C3(C)CC(O)C2(CO)C(O)C1O (centres undefined)
T/C (dose: 3.5 mg/kg/injection, schedule: Q01DX005 (ip), vehicle: Klucel (hydroxypropylcellulose) (HPC)): 99 % of control
T/C (dose: 7.0 mg/kg/injection, schedule: Q01DX005 (ip), vehicle: Klucel (hydroxypropylcellulose) (HPC)): 99 % of control
T/C (dose: 14.0 mg/kg/injection, schedule: Q01DX005 (ip), vehicle: Klucel (hydroxypropylcellulose) (HPC)): 95 % of control
T/C (dose: 28.0 mg/kg/injection, schedule: Q01DX005 (ip), vehicle: Klucel (hydroxypropylcellulose) (HPC)): 96 % of control

CCOc1c(N=Nc2ccc(Cl)cc2Cl)c(C)nn1C(N)=S
T/C (dose: 15.0 mg/kg/injection, schedule: Q01DX005 (ip), vehicle: Klucel (hydroxypropylcellulose) (HPC)): 95 % of control
T/C [20]: 90 % of control

O=C(O)C1CSC(c2ccc(O)cc2)N1 (centres undefined)
T/C (dose: 50.0 mg/kg/injection, schedule: Q01DX009 (ip), vehicle: saline): 87 % of control
T/C (dose: 100.0 mg/kg/injection, schedule: Q01DX009 (ip), vehicle: saline): 88 % of control
T/C (dose: 200.0 mg/kg/injection, schedule: Q01DX009 (ip), vehicle: saline): 90 % of control

CS(=O)(=O)N1CCCN(S(C)(=O)=O)COC1
T/C [18]: 99 % of control
T/C [19]: 101 % of control
T/C [21]: 101 % of control

C=CC1CN2CCC1CC2C(=O)c1ccnc2ccc(OC)cc12 (centres undefined)
T/C [7]: 100 % of control
T/C [8]: 100 % of control
T/C [9]: 100 % of control

O=C1CCC(Cc2ccc(Cl)cc2Cl)C(=O)N1 (centres undefined)
T/C [18]: 96 % of control
T/C [19]: 94 % of control
T/C [21]: 87 % of control

CCOC(=O)CC1CC(=O)C(C(=O)OCC)C=C1C(=O)OCC (centres undefined)
T/C [7]: 94 % of control
T/C [8]: 98 % of control

C=CC(O)CC#N (centres undefined)
T/C (dose: 18.75 mg/kg/injection, schedule: Q01DX009 (ip), vehicle: saline with Tween-80): 102 % of control
T/C (dose: 37.5 mg/kg/injection, schedule: Q01DX009 (ip), vehicle: saline with Tween-80): 102 % of control
T/C (dose: 75.0 mg/kg/injection, schedule: Q01DX009 (ip), vehicle: saline with Tween-80): 108 % of control

CS/C(=C\c1ccc(C(=O)c2ccc(C)cc2)n1C)S(C)=O (centres undefined)
T/C [20]: 94 % of control
T/C [10]: 91 % of control and 94 % of control
T/C [11]: 92 % of control
T/C [12]: 88 % of control

O=C(O)/C=N/NS(=O)(=O)/C=C/c1ccccc1
T/C (dose: 25.0 mg/kg/injection, schedule: Q01DX009 (ip), vehicle: distilled water + Tween-80): 166 % of control
T/C (dose: 50.0 mg/kg/injection, schedule: Q01DX009 (ip), vehicle: distilled water + Tween-80): 172 % of control
T/C (dose: 100.0 mg/kg/injection, schedule: Q01DX009 (ip), vehicle: distilled water + Tween-80): 112 % of control

CC(C)c1cc(C(C)C)c(S(=O)(=O)ON)c(C(C)C)c1
T/C (dose: 100.0 mg/kg/injection, schedule: Q04DX002 (ip), vehicle: saline): 112 % of control
T/C (dose: 200.0 mg/kg/injection, schedule: Q04DX002 (ip), vehicle: saline): 99 % of control

OCC1OC(n2nnc3cc[nH]c(=S)c32)C(O)C1O (centres undefined)
T/C (dose: 1.56 mg/kg/injection, schedule: Q01DX009 (ip), vehicle: water): 106 % of control
T/C (dose: 3.13 mg/kg/injection, schedule: Q01DX009 (ip), vehicle: water): 99 % of control
T/C (dose: 6.25 mg/kg/injection, schedule: Q01DX009 (ip), vehicle: water): 98 % of control
T/C (dose: 12.5 mg/kg/injection, schedule: Q01DX009 (ip), vehicle: water): 107 % of control
T/C (dose: 25.0 mg/kg/injection, schedule: Q01DX009 (ip), vehicle: water): 97 % of control

C1CC2CC1CC2CNCC1CC2CCC1C2 (centres undefined)
T/C [2]: 103 % of control
T/C [3]: 103 % of control
T/C [4]: 98 % of control and 101 % of control

CC(/C=C/c1ccc(Cl)c(Cl)c1)=N\NC(N)=S
T/C [18]: 121 % of control

O=c1[nH]c2cc(Cl)ccc2nc1/C=C(\O)c1ccco1
T/C [18]: 102 % of control
T/C [19]: 94 % of control
T/C [21]: 102 % of control
